Test results taken from the NIST ThermoML archive (doi:10.1016/j.jct.2015.02.002).
Numbers after ± are expanded uncertainties.

Settings: Crystal; visual observation

O=C(O)CC(O)C(=O)O (stereo unspecified) [hydroxybutanedioic acid] showed a Normal melting temperature of 130.00 ± 0.5 °C.
